Blank lines part the entries; values can stand above or below the compound they belong to.
Legend:
[1] = Drug metabolism in Wistar rat urine/feces treated with 750 mg/kg, po of 5,7,4'-trimethoxyflavone by LC-MS and LC-MS/MS analysis; assay type: ADME, organism-based; set-up: dose 750 mg/kg, route oral; conditions: in vivo
[2] = AUC in Wistar rat at 250 mg/kg, iv by HPLC analysis; assay type: ADME, organism-based; set-up: dose 250 mg/kg, route intravenous; conditions: plasma
[3] = Drug excretion in Wistar rat urine at 750 mg/kg, po after 12 hrs by HPLC-UV analysis; assay type: ADME, organism-based; set-up: dose 750 mg/kg, route oral; conditions: in vivo
Brain = experiment: AUC (0.083 to 4 hrs) in Wistar rat brain at 750 mg/kg, po by LC-MS/MS analysis; assay type: ADME, organism-based; set-up: time 0.083-4 hr, dose 750 mg/kg, route oral; conditions: in vivo
Rattus norvegicus [4] = experiment: Volume of distribution in Wistar rat at 250 mg/kg, po by HPLC analysis; assay type: ADME, organism-based; set-up: dose 250 mg/kg, route oral; conditions: in vivo
[5] = Tmax in Wistar rat at 250 mg/kg, po by HPLC analysis; assay type: ADME, organism-based; set-up: dose 250 mg/kg, route oral; conditions: in vivo
[6] = Tmax in Wistar rat testes at 750 mg/kg, po by LC-MS/MS analysis; assay type: ADME, organism-based, Testis; set-up: dose 750 mg/kg, route oral
[7] = Tmax in Wistar rat brain at 750 mg/kg, po by LC-MS/MS analysis; assay type: ADME, organism-based; set-up: dose 750 mg/kg, route oral
[8] = Drug metabolism in Wistar rat assessed as excretion of 2-(3-hydroxy-4-methoxyphenyl)-3,5,7-trimethoxy-4H-chromen-4-one in urine at 750 mg/kg, po by LC-MS and LC-MS/MS analysis; assay type: ADME, organism-based; set-up: dose 750 mg/kg, route oral; conditions: in vivo
[9] = Tmax in Wistar rat lung at 750 mg/kg, po by LC-MS/MS analysis; assay type: ADME, organism-based; set-up: dose 750 mg/kg, route oral
[10] = Cmax in Wistar rat testes at 750 mg/kg, po by LC-MS/MS analysis; assay type: ADME, organism-based, Testis; set-up: dose 750 mg/kg, route oral
Rattus norvegicus [11] = experiment: Elimination rate constant in Wistar rat at 250 mg/kg, iv by HPLC analysis; assay type: ADME, organism-based; set-up: dose 250 mg/kg, route intravenous; conditions: in vivo
[12] = Drug excretion in Wistar rat feces at 750 mg/kg, po after 18 to 24 hrs by HPLC-UV analysis; assay type: ADME, organism-based; set-up: dose 750 mg/kg, route oral; conditions: in vivo
[13] = Cmax in Wistar rat liver at 750 mg/kg, po by LC-MS/MS analysis; assay type: ADME, organism-based; set-up: dose 750 mg/kg, route oral
[14] = Drug excretion in Wistar rat urine at 750 mg/kg, po after 24 to 72 hrs by HPLC-UV analysis; assay type: ADME, organism-based; set-up: dose 750 mg/kg, route oral; conditions: in vivo
[15] = Clearance in Wistar rat at 250 mg/kg, iv by HPLC analysis; assay type: ADME, organism-based; set-up: dose 250 mg/kg, route intravenous; conditions: in vivo
Rattus norvegicus [16] = experiment: Half life in Wistar rat at 250 mg/kg, iv by HPLC analysis; assay type: ADME, organism-based; set-up: dose 250 mg/kg, route intravenous; conditions: in vivo
[17] = Cmax in Wistar rat brain at 750 mg/kg, po by LC-MS/MS analysis; assay type: ADME, organism-based; set-up: dose 750 mg/kg, route oral
[18] = Cmax in Wistar rat kidney at 750 mg/kg, po by LC-MS/MS analysis; assay type: ADME, organism-based; set-up: dose 750 mg/kg, route oral
[19] = Drug excretion in Wistar rat feces at 750 mg/kg, po after 12 hrs by HPLC-UV analysis; assay type: ADME, organism-based; set-up: dose 750 mg/kg, route oral; conditions: in vivo
Rattus norvegicus [20] = experiment: Absorption rate constant in Wistar rat at 250 mg/kg, po by HPLC analysis; assay type: ADME, organism-based; set-up: dose 250 mg/kg, route oral; conditions: in vivo
[21] = Cmax in Wistar rat at 250 mg/kg, po by HPLC analysis; assay type: ADME, organism-based; set-up: dose 250 mg/kg, route oral; conditions: in vivo
[22] = AUC in Wistar rat at 250 mg/kg, po by HPLC analysis; assay type: ADME, organism-based; set-up: dose 250 mg/kg, route oral; conditions: plasma
[23] = Tmax in Wistar rat liver at 750 mg/kg, po by LC-MS/MS analysis; assay type: ADME, organism-based; set-up: dose 750 mg/kg, route oral
[24] = AUC (0.083 to 4 hrs) in Wistar rat testes at 750 mg/kg, po by LC-MS/MS analysis; assay type: ADME, organism-based, Testis; set-up: time 0.083-4 hr, dose 750 mg/kg, route oral; conditions: in vivo
[25] = Drug excretion in Wistar rat feces at 750 mg/kg, po after up to 72 hrs by HPLC-UV analysis; assay type: ADME, organism-based; set-up: dose 750 mg/kg, route oral; conditions: faeces, read-out: Drug excretion
[26] = Tmax in Wistar rat kidney at 750 mg/kg, po by LC-MS/MS analysis; assay type: ADME, organism-based; set-up: dose 750 mg/kg, route oral
Liver = experiment: AUC (0.083 to 4 hrs) in Wistar rat liver at 750 mg/kg, po by LC-MS/MS analysis; assay type: ADME, organism-based; set-up: time 0.083-4 hr, dose 750 mg/kg, route oral; conditions: in vivo
[27] = Drug metabolism in Wistar rat assessed as excretion of 5-hydroxy-2-(3-hydroxy-4-methoxyphenyl)-3,7-dimethoxy-4H-chromen-4-one in urine/feces at 750 mg/kg, po by LC-MS and LC-MS/MS analysis; assay type: ADME, organism-based; set-up: dose 750 mg/kg, route oral; conditions: in vivo
[28] = Drug excretion in Wistar rat urine at 750 mg/kg, po after up to 72 hrs by HPLC-UV analysis; assay type: ADME, organism-based; set-up: dose 750 mg/kg, route oral; conditions: read-out: Drug excretion
[29] = Oral bioavailability in Wistar rat at 250 mg/kg by HPLC analysis; assay type: ADME, organism-based; conditions: in vivo
Lung = experiment: AUC (0.083 to 4 hrs) in Wistar rat lung at 750 mg/kg, po by LC-MS/MS analysis; assay type: ADME, organism-based; set-up: time upper 4 hr, time lower 0.083 hr, dose 750 mg/kg, route oral; conditions: in vivo
[30] = Clearance in Wistar rat at 250 mg/kg, po by HPLC analysis; assay type: ADME, organism-based; set-up: dose 250 mg/kg, route oral; conditions: in vivo
[31] = Cmax in Wistar rat lung at 750 mg/kg, po by LC-MS/MS analysis; assay type: ADME, organism-based; set-up: dose 750 mg/kg, route oral
[32] = Elimination rate constant in Wistar rat at 250 mg/kg, po by HPLC analysis; assay type: ADME, organism-based; set-up: dose 250 mg/kg, route oral; conditions: in vivo, read-out: Ke (converted)
[33] = Half life in Wistar rat at 250 mg/kg, po by HPLC analysis; assay type: ADME, organism-based; set-up: dose 250 mg/kg, route oral; conditions: in vivo
[34] = Drug metabolism in Wistar rat assessed as excretion of 3,5-dihydroxy-2-(3-hydroxy-4-methoxyphenyl)-7-methoxy-4H-chromen-4-one in feces at 750 mg/kg, po by LC-MS and LC-MS/MS analysis; assay type: ADME, organism-based; set-up: dose 750 mg/kg, route oral; conditions: in vivo
Kidney = experiment: AUC (0.083 to 4 hrs) in Wistar rat kidney at 750 mg/kg, po by LC-MS/MS analysis; assay type: ADME, organism-based; set-up: time 0.083-4 hr, dose 750 mg/kg, route oral; conditions: in vivo
[35] = Drug metabolism in Wistar rat urine/feces treated with 750 mg/kg, po of 3,5,7,3',4'-pentamethoxyflavone by LC-MS and LC-MS/MS analysis; assay type: ADME, organism-based; set-up: dose 750 mg/kg, route oral; conditions: in vivo

Drug metabolism [1]: metabolite_detected
Compound: COc1cc(O)c2c(=O)cc(-c3ccc(O)cc3)oc2c1 [GENKWANIN]

AUC [2]: 76800 ng·h/mL
Drug excretion [3]: Active
AUC (Brain): 0.76 µg·h/g
Vd (Rattus norvegicus [4]): 2637.13 mL
Tmax [5]: 1.71 h
Tmax [6]: 2.36 h
Tmax [7]: 3.14 h
Drug metabolism [8]: metabolite_detected
Tmax [9]: 4.8 min
Cmax [10]: 500 ng/g
Ke (Rattus norvegicus [11]): 0.61 h⁻¹
Drug excretion [12]: Active
Cmax [13]: 3100 ng/g
Drug excretion [14]: Active
clearance [15]: 0.359 mL/min
t1/2 (Rattus norvegicus [16]): 2.36 h
Cmax [17]: 260 ng/g
Cmax [18]: 1000 ng/g
Drug excretion [19]: Active
ka (Rattus norvegicus [20]): 1.23 h⁻¹
Cmax [21]: 550 ng/mL
AUC [22]: 3650 ng·h/mL
Tmax [23]: 3.43 h
AUC [24]: 1.01 µg·h/g
dose excreted at 72 h [25]: 0.79%
Tmax [26]: 3.43 h
AUC (Liver): 9.07 µg·h/g
Drug metabolism [27]: metabolite_detected
dose excreted at 72 h [28]: 1.06%
bioavailability [29]: 3.32%
AUC (Lung): 1.6 µg·h/g
CL/F [30]: 10.4 mL/min
Cmax [31]: 2230 ng/g
k el [32]: 7.78e-05 s⁻¹
half-life [33]: 3.12 h
Drug metabolism [34]: metabolite_detected
AUC (Kidney): 2.03 µg·h/g
Compound: COc1cc(OC)c2c(=O)c(OC)c(-c3ccc(OC)c(OC)c3)oc2c1

Drug metabolism [35]: metabolite_detected
Compound: COc1cc(OC)c2c(=O)c(OC)c(-c3ccc(OC)c(O)c3)oc2c1

Drug excretion [3]: Active
Drug excretion [19]: Active
Compound: COc1cc(O)c2c(=O)c(OC)c(-c3ccccc3)oc2c1
